The record followed here is ChEMBL document CHEMBL1201862, “PubChem BioAssay data set” (2004).

Calls of active or inactive are those of the source.

The target of one test is Protein Wnt-3a (Mus musculus, UniProt P27467). Description: Wnt3a-driven reporter signaling inhibition, dose response, selectivity assay for Gli-SUFU antagonist project, Wnt-LIGHT cells, luminescence (AID 651570).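 Further: Wnt-LIGHT reporter cells stimulated with conditioned medium from Wnt3a-producing cells.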 The conditions noted are these: read-out: IC50_Mean. The format is functional.
The test system of the next test is INS1. Description: beta cell apoptosis inhibitors, cytokine rescue, dose response, luminescence, retest (AID 449756).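 Further: cell death triggered by IL-1 beta plus TNF-alpha plus IFN-gamma mixture; protective hits raise ATP signal compared with cytokine alone wells.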 The format is functional, cell-based. The conditions noted are these: Rattus norvegicus, INS1.
The nature of test [1]: cells. The format is functional, cell-based.
Test [2] deals with T1, Trace amine-associated receptor 1 (Homo sapiens, UniProt Q96RJ0).
T1 sequence (Q96RJ0 whole entry): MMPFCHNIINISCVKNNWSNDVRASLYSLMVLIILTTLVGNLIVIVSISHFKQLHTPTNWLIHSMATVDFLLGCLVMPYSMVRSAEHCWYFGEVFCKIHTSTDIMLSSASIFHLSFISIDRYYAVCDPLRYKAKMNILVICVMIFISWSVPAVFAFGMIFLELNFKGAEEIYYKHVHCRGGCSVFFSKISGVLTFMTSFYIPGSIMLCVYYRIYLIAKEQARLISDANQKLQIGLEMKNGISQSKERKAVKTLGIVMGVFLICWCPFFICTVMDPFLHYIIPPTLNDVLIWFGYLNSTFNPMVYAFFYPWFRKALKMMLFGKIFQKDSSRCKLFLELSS
Briefly: Fluorescence-based cell-based high throughput dose response assay to identify agonists of the human trace amine associated receptor 1 (TAAR1). Format: functional.

Test [3] deals with T1, Trace amine-associated receptor 1. Description: Counterscreen for agonists of the human trace amine associated receptor 1 (hTAAR1): Fluorescence-based cell-based high throughput dose response assay to identify hTAAR1 agonist that also desensitize TAAR1 receptor response. The format is functional.
Test [4] is described as follows: cells. Format: functional, cell-based. The source holds these as a separate data set.
In the next test the target is Melanocortin receptor 4 (Homo sapiens, UniProt P32245). Description: MC4R antagonist potency on cAMP, dose response, cell-based, TR-FRET, biased antagonists (AID 602298).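 Further: antagonist potency against agonist-stimulated cAMP production.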 Format: functional. For orientation: In TR-FRET formats the signal depends on donor and acceptor labels being close together.
Test [5] is described as follows: nonselective inhibitors of cellular cAMP signaling, dose response, counter-screen for MC4R biased antagonist project, cell-based, TR-FRET cAMP detection (AID 602305).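 Further: U2OS cells stimulated with forskolin near its EC80 as the cAMP inducer; potency is for inhibition of forskolin-stimulated cAMP signaling.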 The format is functional. (In general: The purpose of a counterscreen is to sort out artefacts and off-target activity.)
Test [6] concerns the target T2, Small ubiquitin-related modifier 1 (Homo sapiens, UniProt P63165). Briefly: inhibitors of SUMO1 partner interactions, dose response, biochemical, FRET (AID 624383). The format is functional. Particulars: read-out: IC50_Mean.
The target in the next test is T3, Streptokinase A (Streptococcus pyogenes serotype M1, UniProt P10520).
T3 sequence (P10520 whole entry): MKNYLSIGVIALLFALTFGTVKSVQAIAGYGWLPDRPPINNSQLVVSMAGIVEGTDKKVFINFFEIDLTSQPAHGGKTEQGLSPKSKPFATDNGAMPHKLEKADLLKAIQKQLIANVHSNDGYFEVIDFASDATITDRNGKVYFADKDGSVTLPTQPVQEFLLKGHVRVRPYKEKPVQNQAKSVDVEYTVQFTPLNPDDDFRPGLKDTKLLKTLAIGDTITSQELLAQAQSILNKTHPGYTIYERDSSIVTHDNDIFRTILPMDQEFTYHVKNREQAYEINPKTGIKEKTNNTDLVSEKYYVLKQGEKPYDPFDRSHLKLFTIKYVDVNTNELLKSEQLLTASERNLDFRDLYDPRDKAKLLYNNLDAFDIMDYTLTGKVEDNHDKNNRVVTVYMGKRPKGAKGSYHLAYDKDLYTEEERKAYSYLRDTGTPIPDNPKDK
Description: S. pyogenes streptokinase expression inhibitors, potency, dose response, plasminogen activation absorbance, OD405 (AID 1914).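 Further: secreted streptokinase activity via plasminogen activation per viability signal from cell pellet.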 The format is functional, Streptococcus pyogenes M1 GAS.

The next test deals with Streptococcus. Description: Group A Streptococcus viability loss, dose response, counter-screen for streptokinase expression inhibitor project, luminescence, BacTiterGlo (AID 1915).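 Further: potency for reduction of bacterial viability or growth.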 Format: functional, organism-based.
The target of a further test is T4, Aminopeptidase N (Plasmodium falciparum FcB1/Columbia, UniProt O96935).
T4 sequence (O96935 whole entry): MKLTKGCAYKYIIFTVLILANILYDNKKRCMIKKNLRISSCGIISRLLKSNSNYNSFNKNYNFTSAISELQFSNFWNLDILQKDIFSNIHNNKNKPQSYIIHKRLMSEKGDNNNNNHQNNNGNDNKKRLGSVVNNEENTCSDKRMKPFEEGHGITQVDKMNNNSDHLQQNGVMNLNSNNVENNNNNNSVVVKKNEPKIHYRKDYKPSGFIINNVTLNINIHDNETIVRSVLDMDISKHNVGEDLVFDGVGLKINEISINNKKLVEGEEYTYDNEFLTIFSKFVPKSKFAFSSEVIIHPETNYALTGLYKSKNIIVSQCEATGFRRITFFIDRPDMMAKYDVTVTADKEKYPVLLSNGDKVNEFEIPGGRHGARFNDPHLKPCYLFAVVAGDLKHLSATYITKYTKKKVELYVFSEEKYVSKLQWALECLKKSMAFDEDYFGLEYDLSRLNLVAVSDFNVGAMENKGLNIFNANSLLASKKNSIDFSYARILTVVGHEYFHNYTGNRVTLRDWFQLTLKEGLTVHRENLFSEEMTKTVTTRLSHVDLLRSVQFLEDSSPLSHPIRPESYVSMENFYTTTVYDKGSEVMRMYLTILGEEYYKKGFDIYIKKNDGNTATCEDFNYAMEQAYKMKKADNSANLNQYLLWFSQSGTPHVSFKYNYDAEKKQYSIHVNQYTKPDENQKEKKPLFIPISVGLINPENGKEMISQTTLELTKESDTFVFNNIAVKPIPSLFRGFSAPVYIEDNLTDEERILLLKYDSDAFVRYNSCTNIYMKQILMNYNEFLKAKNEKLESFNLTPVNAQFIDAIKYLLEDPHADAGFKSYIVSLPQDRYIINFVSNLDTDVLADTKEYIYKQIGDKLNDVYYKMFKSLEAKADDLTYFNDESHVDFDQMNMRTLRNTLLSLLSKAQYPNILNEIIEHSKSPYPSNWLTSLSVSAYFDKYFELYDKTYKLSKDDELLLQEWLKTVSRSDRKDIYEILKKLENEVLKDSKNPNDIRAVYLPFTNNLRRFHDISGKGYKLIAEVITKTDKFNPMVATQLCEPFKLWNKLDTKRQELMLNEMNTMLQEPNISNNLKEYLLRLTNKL
Briefly: P. falciparum M1AAP inhibitors, biochemical, fluorogenic H-Leu-NHMec substrate, 1536-well (AID 1445). Set-up: species or system Plasmodium falciparum 3D7, 3D7.

The target in test [7] is Eukaryotic translation initiation factor 4E (Mus musculus, UniProt P63073). Description: eIF4E–eIF4G protein interaction inhibitors, dose response, biochemical, TR-FRET (AID 855).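 Further: potency for disrupting eIF4E binding to eIF4GI seen as loss of FRET.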 The format is functional.
A further test has as its target Genome polyprotein (dengue virus type 2, UniProt P29990). Briefly: Dengue-2 NS5 methyltransferase inhibitors, primary screen, biochemical, confirmation dose response (AID 588689). Format: functional.
Test [8] has as its system Streptococcus sp. 'group A'. Description: growth inhibition of control SK(-) GAS strain, dose response, counter-screen for streptokinase expression inhibitor project, luminescence, kanamycin, BacTiterGlo, confirmation (AID 1900). The format is functional, organism-based.
Another test concerns Vero. Briefly: Vero cell cytotoxicity, cytotoxicity control for flavivirus capping enzyme inhibitors (AID 588742). The format is functional. The conditions noted are these: Chlorocebus sabaeus.
Test [9] addresses Induced myeloid leukemia cell differentiation protein Mcl-1 (Homo sapiens, UniProt Q07820). Format: functional.
Test [10] addresses T2, Small ubiquitin-related modifier 1. Briefly: inhibitors of SUMO1 peptide binding, dose response, biochemical, fluorescence polarization, uHTS hits (AID 624382). The format is functional. Particulars: read-out: IC50_Mean.
The subject of the next test is SN12K1. Description: cells. The conditions noted are these: Homo sapiens. Format: functional.
The test system of a further test is P388. Description: cells. Format: functional. The conditions noted are these: Mus musculus.
The next test deals with P388/ADR. Briefly: cells. Format: functional. The conditions noted are these: Mus musculus.

Chain of Melanocortin receptor 4 (P32245 whole entry): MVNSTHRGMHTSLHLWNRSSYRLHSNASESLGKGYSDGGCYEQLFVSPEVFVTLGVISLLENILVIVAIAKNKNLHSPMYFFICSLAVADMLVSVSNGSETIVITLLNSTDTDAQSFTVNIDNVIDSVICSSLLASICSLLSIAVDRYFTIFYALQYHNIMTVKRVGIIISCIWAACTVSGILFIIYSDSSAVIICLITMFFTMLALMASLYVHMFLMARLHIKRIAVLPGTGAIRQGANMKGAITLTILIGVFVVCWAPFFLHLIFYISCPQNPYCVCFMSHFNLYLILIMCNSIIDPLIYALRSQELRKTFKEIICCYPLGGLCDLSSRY
T2 sequence (P63165 whole entry): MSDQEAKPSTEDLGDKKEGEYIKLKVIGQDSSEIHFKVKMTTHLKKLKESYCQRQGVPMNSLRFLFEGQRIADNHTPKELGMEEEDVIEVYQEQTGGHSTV
Chain of Protein Wnt-3a (P27467 whole entry): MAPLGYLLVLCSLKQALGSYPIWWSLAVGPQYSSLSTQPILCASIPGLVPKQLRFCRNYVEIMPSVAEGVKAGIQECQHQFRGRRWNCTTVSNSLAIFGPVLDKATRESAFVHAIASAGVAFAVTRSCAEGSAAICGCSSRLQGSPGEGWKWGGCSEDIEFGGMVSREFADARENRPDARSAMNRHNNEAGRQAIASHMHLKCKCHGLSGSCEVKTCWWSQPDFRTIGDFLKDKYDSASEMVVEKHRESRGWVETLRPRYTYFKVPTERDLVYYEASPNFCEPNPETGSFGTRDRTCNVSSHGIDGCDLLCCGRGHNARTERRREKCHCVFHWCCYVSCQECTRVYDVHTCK
Chain of Induced myeloid leukemia cell differentiation protein Mcl-1 (Q07820 whole entry): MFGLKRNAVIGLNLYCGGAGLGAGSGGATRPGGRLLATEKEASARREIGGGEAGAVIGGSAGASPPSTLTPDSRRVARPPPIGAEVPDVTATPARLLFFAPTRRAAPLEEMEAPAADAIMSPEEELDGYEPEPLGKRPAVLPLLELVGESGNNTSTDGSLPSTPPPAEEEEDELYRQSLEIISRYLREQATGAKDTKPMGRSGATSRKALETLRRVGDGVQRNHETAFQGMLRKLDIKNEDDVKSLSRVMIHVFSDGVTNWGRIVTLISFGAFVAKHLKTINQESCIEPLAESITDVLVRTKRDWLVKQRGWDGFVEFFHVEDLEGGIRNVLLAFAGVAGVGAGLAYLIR
Chain of Eukaryotic translation initiation factor 4E (P63073 whole entry): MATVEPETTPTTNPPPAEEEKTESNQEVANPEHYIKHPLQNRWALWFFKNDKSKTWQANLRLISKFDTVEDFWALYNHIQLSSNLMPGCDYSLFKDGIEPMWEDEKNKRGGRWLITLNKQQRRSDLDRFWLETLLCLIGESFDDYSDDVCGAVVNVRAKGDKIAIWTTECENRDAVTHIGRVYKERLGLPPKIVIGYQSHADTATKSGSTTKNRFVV
Chain of Genome polyprotein (P29990 2492-3391 limits assumed): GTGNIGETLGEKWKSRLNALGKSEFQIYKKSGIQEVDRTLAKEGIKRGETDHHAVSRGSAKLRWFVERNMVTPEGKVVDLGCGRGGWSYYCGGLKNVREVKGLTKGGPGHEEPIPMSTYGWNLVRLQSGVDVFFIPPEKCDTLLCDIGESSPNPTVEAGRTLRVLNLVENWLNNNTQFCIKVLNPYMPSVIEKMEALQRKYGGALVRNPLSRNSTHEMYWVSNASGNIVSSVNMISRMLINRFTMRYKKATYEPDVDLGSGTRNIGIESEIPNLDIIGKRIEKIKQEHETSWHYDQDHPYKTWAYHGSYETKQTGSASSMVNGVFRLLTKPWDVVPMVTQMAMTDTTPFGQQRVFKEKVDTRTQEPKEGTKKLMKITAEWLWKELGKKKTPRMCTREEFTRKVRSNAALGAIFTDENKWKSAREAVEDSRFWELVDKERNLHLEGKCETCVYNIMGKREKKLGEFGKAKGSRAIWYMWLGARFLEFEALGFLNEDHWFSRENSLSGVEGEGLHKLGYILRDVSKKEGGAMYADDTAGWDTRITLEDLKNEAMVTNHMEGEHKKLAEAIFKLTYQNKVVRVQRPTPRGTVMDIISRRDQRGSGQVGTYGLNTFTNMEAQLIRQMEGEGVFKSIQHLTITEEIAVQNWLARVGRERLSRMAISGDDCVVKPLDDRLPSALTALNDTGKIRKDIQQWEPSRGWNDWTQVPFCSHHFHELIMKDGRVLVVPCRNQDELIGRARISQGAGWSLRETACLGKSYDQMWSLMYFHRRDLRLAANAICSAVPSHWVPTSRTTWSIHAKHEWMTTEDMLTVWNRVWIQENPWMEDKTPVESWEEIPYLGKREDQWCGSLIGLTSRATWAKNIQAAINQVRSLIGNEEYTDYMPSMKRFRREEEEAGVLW

As for `O=C(NC(c1cccnc1)C(F)(F)F)c1cc(COc2ccc3c(c2)CCCC3)on1` (stereo not drawn), on Protein Wnt-3a, the IC50 was 40.4 µM (inactive). In addition, the AC50 (usually the midpoint of the concentration-response curve, whichever way the signal moves) in the test with INS1 was 3.48 µM (active).
On to `Cc1ccnc(NC(=O)Nc2ccc3c(c2)OCO3)c1`, for which the IC50 (in the test “cells [1]”; in [3]) was > 29.9 µM (inactive) each time. Moreover, the EC50 (in [2]; in the test “cells [4]”) was > 29.9 µM (inactive) in each case.
With `C(#Cc1ccccc1)C[N+]1(CC#Cc2ccccc2)CCCC1`, on Protein Wnt-3a, the IC50 is 8.34 µM (active).
`O=C(Nc1nc2cc(Cl)ccc2s1)C1CCCN(S(=O)(=O)c2cccc3cccnc23)C1` (stereo not drawn): the IC50 (at Melanocortin receptor 4; in test [5]) was > 64.6 µM (inactive) in each case.
With `CCN(c1ccc(OCC(=O)OCC(=O)c2c(N)n(C)c(=O)n(C)c2=O)cc1)S(=O)(=O)c1ccccc1`, the results for the IC50 (at Melanocortin receptor 4; in test [5]) were > 7.18 µM (active) and > 64.6 µM (inactive), respectively.
As to `Cc1cccc(CCNCc2cc3cc(C)cc(C)c3nc2O)c1`, the figures for the IC50 (in “cells [1]”; in test [3]) were > 29.9 µM (inactive) and 1.84 µM (active), respectively. For the same compound, the EC50 – broadly, the concentration that produces a half-maximal response – in [2] was 0.73 µM (active); in “cells [4]” it was > 29.9 µM (inactive).
Consider `c1ccc(COc2ccc(-c3cc4nc(NCCN5CCOCC5)ccn4n3)cc2)cc1`, for which the IC50 on Melanocortin receptor 4 is 20 µM (inactive); in test [5], > 64.6 µM (inactive).
On to `O=C(O)C1CCCCC1C(=O)NCCc1ccc(F)cc1` (stereo not drawn), for which the IC50 is > 29.9 µM (inactive) in the test “cells [1]” and 8.15 µM (active) in [3]. Further, the EC50 in test [2] was 1.39 µM (active); in the test “cells [4]”, > 29.9 µM (inactive).
As for `CCN1C(=O)/C(=C\c2ccc(-c3ccc([N+](=O)[O-])cc3OC)o2)S/C1=N\c1cccc(C(=O)O)c1`, the IC50 in test [6] is 25.8 µM (inactive); on Aminopeptidase N, 2.2 µM (active); in test [7], 50 µM (inactive); at Genome polyprotein it was 64.5 µM (active); in test [9] it was 6.7 µM (active); in [10] it was > 66.6 µM (inactive). In addition, the EC50 at Streptokinase A was > 150 µM (not active); in the test with Streptococcus, 8.58 µM (active); in [8], 3.17 µM (active). Also, the CC50 (commonly the concentration giving 50% cytotoxicity) with Vero is > 40 µM (active).
`ClCCCN1CCN(CCCl)CC1`: the GI50 (usually the concentration at which growth is held to half of that of the control) with SN12K1 is 109 µM (inactive); with P388 it was 17.7 µM (inactive); in the test with P388/ADR, 27 µM (inactive).
Regarding `C=C1C(=O)O[C@@H]2[C@H](O)[C@@H](C)[C@@H]3C=CC(=O)[C@@]3(C)[C@H](OC(=O)C=C(C)C)[C@H]12`, the GI50 with SN12K1 was 0.681 µM (active); with P388 it was 0.194 µM (active); in the test on P388/ADR, 0.141 µM (active).
Taken in the same sequence, the figures for `Nc1nc(=O)c2c([nH]1)NCC(CNc1ccc(C(=O)N[C@@H](CCC(=O)O)C(=O)O)cc1)N2C=O` (stereo partly drawn) [LEUCOVORIN CALCIUM] were > 125 µM (inactive), > 125 µM (inactive) and > 124 µM (inactive).
Take `CCCCCCCCCCCCCCCCCCOP(=O)([O-])OCC[N+](C)(C)C` [OCTADECYLPHOSPHONOCHOLINE]: the GI50 with SN12K1 is 13.7 µM (inactive); with P388, 3.78 µM (inactive); in the test on P388/ADR it was 11.1 µM (inactive).
